Test results: patent US20240199605A1, “SMALL MOLECULAR INHIBITORS OF NF-kB INDUCING KINASE” (Janssen Pharmaceutica NV, priority 2019, published 2024)

Legend:
[1] = test system: p-IKKα levels in L363 (NIK translocated multiple myeloma) cells; experiment: Effect of compounds on p-IKKα levels in L363 cells (AlphaLISA SureFire Ultra); assay type: cell-based, human; settings: Homo sapiens, L-363, 6 h, BAFF stimulated, MG132, 6 h, average of values, read-out: Assay 2 IC50
Method in brief: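 Inhibition of p-IKKα (Ser176/180) read by AlphaLISA after 6 h, 37 °C compound exposure (11-point 1:3 series, 0.3% DMSO) of L363 cells pre-incubated overnight ± 250 ng/ml BAFF and plated ± BAFF ± 10 μM MG132. Normalised to BAFF/MG132/DMSO and unstimulated controls; IC50 by sigmoidal fitting, duplicates.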

[2] = target: recombinant human NF-kappaB-inducing kinase (NIK/MAP3K14) (Homo sapiens (Human), UniProt Q99558); experiment: Inhibition of auto-phosphorylation of recombinant human NIK/MAP3K14 (AlphaScreen); assay type: biochemical; settings: NIK auto-phosphorylation, 5 μM ATP, 1 nM NIK, 2 h at 25° C.; average of values
Method in brief: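 AlphaScreen read-out (anti-phospho-IKK Ser176/180 antibody, Protein A acceptor and glutathione donor beads) of NIK auto-phosphorylation. Reaction: 1 nM enzyme, 5 μM ATP, Tris pH 7.5 buffer with Mg2+ and vanadate, 2 h at 25° C., final DMSO 0.7%. IC50 came from a sigmoidal curve fit.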

recombinant human NF-kappaB-inducing kinase (NIK/MAP3K14), sequence (Q99558 whole entry): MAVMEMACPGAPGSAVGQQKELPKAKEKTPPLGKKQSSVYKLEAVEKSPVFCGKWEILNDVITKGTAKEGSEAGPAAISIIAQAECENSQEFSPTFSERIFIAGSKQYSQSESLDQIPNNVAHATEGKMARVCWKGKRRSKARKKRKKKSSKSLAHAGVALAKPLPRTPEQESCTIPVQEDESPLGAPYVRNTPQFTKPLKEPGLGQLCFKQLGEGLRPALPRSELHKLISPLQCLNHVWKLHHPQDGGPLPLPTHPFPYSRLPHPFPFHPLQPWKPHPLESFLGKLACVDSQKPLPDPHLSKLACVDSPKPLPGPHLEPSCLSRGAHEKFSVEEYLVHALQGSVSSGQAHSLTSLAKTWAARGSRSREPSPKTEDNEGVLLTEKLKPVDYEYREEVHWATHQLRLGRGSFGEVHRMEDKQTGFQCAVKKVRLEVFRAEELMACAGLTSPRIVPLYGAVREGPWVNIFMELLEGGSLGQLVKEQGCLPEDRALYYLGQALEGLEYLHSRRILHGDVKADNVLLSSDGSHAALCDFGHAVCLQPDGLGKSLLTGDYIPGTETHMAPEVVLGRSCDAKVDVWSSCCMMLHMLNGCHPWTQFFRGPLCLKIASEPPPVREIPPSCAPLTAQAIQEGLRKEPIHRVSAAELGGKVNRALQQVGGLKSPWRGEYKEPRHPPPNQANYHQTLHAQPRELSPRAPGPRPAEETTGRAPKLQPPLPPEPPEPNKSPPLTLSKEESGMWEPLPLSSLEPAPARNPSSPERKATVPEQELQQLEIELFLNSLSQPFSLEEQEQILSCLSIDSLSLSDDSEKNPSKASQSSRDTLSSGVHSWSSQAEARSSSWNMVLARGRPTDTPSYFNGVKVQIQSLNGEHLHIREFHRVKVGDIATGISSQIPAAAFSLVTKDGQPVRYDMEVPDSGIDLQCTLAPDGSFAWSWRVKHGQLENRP

SMILES	IC50 [1] [nM]	IC50 [2] [nM]
CN1CC[C@@](O)(C#Cc2cccc(-c3ccc4nc(N)nc(N)c4n3)c2)C1=O [Example 203, (R)-3-((3-(2,4-Diaminopyrido[3,2-d]pyrimidin-6-yl)phenyl)ethynyl)-3-hydroxy-1-methylpyrrolidin-2-one]	100	1.2
CN1CC[C@](C#Cc2cccc(-c3ccc4ncnc(N)c4n3)c2)(C(F)F)C1=O [Example 204, (R)-3-((3-(4-Aminopyrido[3,2-d]pyrimidin-6-yl)phenyl)ethynyl)-3-(difluoromethyl)-1-methylpyrrolidin-2-one]	1060	21
CN1CC[C@@](C#Cc2cccc(-c3ccc4ncnc(N)c4n3)c2)(C(F)F)C1=O [Example 205, (S)-3-((3-(4-Aminopyrido[3,2-d]pyrimidin-6-yl)phenyl)ethynyl)-3-(difluoromethyl)-1-methylpyrrolidin-2-one]	> 5000	4880
COCc1nc(N)c2nc(-c3cccc(C#C[C@]4(O)CCN(C)C4=O)c3)ccc2n1 [Example 206, (R)-3-((3-(4-Amino-2-(methoxymethyl)pyrido[3,2-d]pyrimidin-6-yl)phenyl)ethynyl)-3-hydroxy-1-methylpyrrolidin-2-one]	160	3.5
CO[C@@]1(C#Cc2cccc(-c3ccc4ncnc(N)c4n3)c2)CCN(C)C1=O [Example 207, (R)-3-((3-(4-Aminopyrido[3,2-d]pyrimidin-6-yl)phenyl)ethynyl)-3-methoxy-1-methylpyrrolidin-2-one]	> 5000	180
[2H]C([2H])([2H])N1CC[C@@](O)(C#Cc2cccc(-c3ccc4nc(CF)nc(N)c4n3)c2)C1=O [Example 208, (R)-3-((3-(4-Amino-2-(fluoromethyl)pyrido[3,2-d]pyrimidin-6-yl)phenyl)ethynyl)-3-hydroxy-1-(methyl-d3)pyrrolidin-2-one]	12	≤ 0.5
Cc1nc(N)c2nc(-c3cccc(C#C[C@](C)(O)c4cscn4)c3)ccc2n1 [Example 209, (S)-4-[3-(4-Amino-2-methyl-pyrido[3,2-d]pyrimidin-6-yl)phenyl]-2-thiazol-4-yl-but-3-yn-2-ol]	> 5000	110
CCc1nc(N)c2nc(-c3cccc(C#C[C@]4(O)CCN(C)C4=O)c3)ccc2n1 [Example 210, (R)-3-((3-(4-Amino-2-ethylpyrido[3,2-d]pyrimidin-6-yl)phenyl)ethynyl)-3-hydroxy-1-methylpyrrolidin-2-one]	45	0.8
CN1CC[C@@](O)(C#Cc2cccc(-c3ccc4nc(O)nc(N)c4n3)c2)C1=O [Example 211, (R)-3-((3-(4-Amino-2-hydroxypyrido[3,2-d]pyrimidin-6-yl)phenyl)ethynyl)-3-hydroxy-1-methylpyrrolidin-2-one]	> 5000	2.2
Cc1nc(N)c2nc(-c3cccc(C#C[C@@](C)(O)c4cscn4)c3)ccc2n1 [Example 212, (R)-4-[3-(4-Amino-2-methyl-pyrido[3,2-d]pyrimidin-6-yl)phenyl]-2-thiazol-4-yl-but-3-yn-2-ol]	59	0.7
Cc1nc(N)c2nc(-c3cccc(C#C[C@@](C)(O)c4nnc(C)o4)c3)ccc2n1 [Example 213, (R)-4-(3-(4-Amino-2-methylpyrido[3,2-d]pyrimidin-6-yl)phenyl)-2-(5-methyl-1,3,4-oxadiazol-2-yl)but-3-yn-2-ol]	1080	18
CN1CC[C@@](O)(C#Cc2cccc(-c3nc4ncnc(N)c4s3)c2)C1=O [Example 214, (R)-3-((3-(7-Aminothiazolo[4,5-d]pyrimidin-2-yl)phenyl)ethynyl)-3-hydroxy-1-methylpyrrolidin-2-one]	> 5000	320
Cc1nc(N)c2c(n1)CCN(c1cccc(C#C[C@]3(O)CCN(C)C3=O)c1)C2 [Example 215, (R)-3-((3-(4-Amino-2-methyl-7,8-dihydropyrido[4,3-d]pyrimidin-6(5H)-yl)phenyl)ethynyl)-3-hydroxy-1-methylpyrrolidin-2-one]	900	16
[2H]C([2H])([2H])N1CC[C@@](O)(C#Cc2ccc(C)c(-c3nc4c(N)ncnc4s3)c2)C1=O [Example 216, (R)-3-[2-[3-(7-Aminothiazolo[5,4-d]pyrimidin-2-yl)-4-methyl-phenyl]ethynyl]-3-hydroxy-1-(trideuteriomethyl)pyrrolidin-2-one]	8.5	≤ 0.5
Cc1cc([C@](C)(O)C#Cc2ccc(C)c(-c3nc4c(N)ncnc4s3)c2)no1 [Example 217, (R)-4-[3-(7-Aminothiazolo[5,4-d]pyrimidin-2-yl)-4-methyl-phenyl]-2-(5-methylisoxazol-3-yl)but-3-yn-2-ol]	77	0.9
CN1CC[C@@](O)(C#Cc2cccc(-c3cn4cncc4c(=O)[nH]3)c2)C1=O [Example 218, (R)-6-[3-[2-(3-Hydroxy-1-methyl-2-oxo-pyrrolidin-3-yl)ethynyl]phenyl]-7H-imidazo[1,5-a]pyrazin-8-one]	> 5000	78
CN1CC[C@@](O)(C#Cc2cccc(-c3ccc4nccc(N)c4n3)c2)C1=O [Example 219, (R)-3-((3-(8-Amino-1,5-naphthyridin-2-yl)phenyl)ethynyl)-3-hydroxy-1-methylpyrrolidin-2-one]	> 5000	240
Cc1ccc(C#C[C@]2(O)CCN(C)C2=O)cc1N1CCc2ncnc(N)c2C1 [Example 220, (R)-3-((3-(4-Amino-7,8-dihydropyrido[4,3-d]pyrimidin-6(5H)-yl)-4-methylphenyl)ethynyl)-3-hydroxy-1-methylpyrrolidin-2-one]	65	1.3
CN1CC[C@@](O)(C#Cc2cccc(-c3ccc4nc[nH]c(=O)c4n3)c2)C1=O [Example 221, (R)-6-(3-((3-Hydroxy-1-methyl-2-oxopyrrolidin-3-yl)ethynyl)phenyl)pyrido[3,2-d]pyrimidin-4(3H)-one]	> 5000	630
CN1CC[C@@](O)(C#Cc2cccc(-c3ccc4ncnc(N5CCCC5)c4n3)c2)C1=O [Example 222, (R)-3-Hydroxy-1-methyl-3-((3-(4-(pyrrolidin-1-yl)pyrido[3,2-d]pyrimidin-6-yl)phenyl)ethynyl)pyrrolidin-2-one]	390	4.2
CN1CC[C@@](O)(C#Cc2cccc(N3CCCc4ncnc(N)c4C3)c2)C1=O [Example 224, (R)-3-((3-(4-Amino-5,7,8,9-tetrahydro-6H-pyrimido[5,4-c]azepin-6-yl)phenyl)ethynyl)-3-hydroxy-1-methylpyrrolidin-2-one]	> 5000	250
CN1CC[C@@](O)(C#Cc2cccc(-c3ccc4ncnc(N5CCCCC5)c4n3)c2)C1=O [Example 225, (R)-3-Hydroxy-1-methyl-3-((3-(4-(piperidin-1-yl)pyrido[3,2-d]pyrimidin-6-yl)phenyl)ethynyl)pyrrolidin-2-one]	600	6.1
CN1CC[C@@](O)(C#Cc2cccc(-c3ccc4ncnc(N5CC(C)(C)C5)c4n3)c2)C1=O [Example 226, (R)-3-((3-(4-(3,3-Dimethylazetidin-1-yl)pyrido[3,2-d]pyrimidin-6-yl)phenyl)ethynyl)-3-hydroxy-1-methylpyrrolidin-2-one]	1400	42
CCNc1ncnc2ccc(-c3cccc(C#C[C@]4(O)CCN(C)C4=O)c3)nc12 [Example 227, (R)-3-((3-(4-(Ethylamino)pyrido[3,2-d]pyrimidin-6-yl)phenyl)ethynyl)-3-hydroxy-1-methylpyrrolidin-2-one]	540	23
CN1CC[C@@](O)(C#Cc2cccc(-c3ccc4ncnc(N5CC(O)C5)c4n3)c2)C1=O [Example 228, (R)-3-Hydroxy-3-((3-(4-(3-hydroxyazetidin-1-yl)pyrido[3,2-d]pyrimidin-6-yl)phenyl)ethynyl)-1-methylpyrrolidin-2-one]	300	4.8
CN1CC[C@@](O)(C#Cc2cccc(-c3ccc4ncnc(NC5COC5)c4n3)c2)C1=O [Example 229, (R)-3-Hydroxy-1-methyl-3-((3-(4-(oxetan-3-ylamino)pyrido[3,2-d]pyrimidin-6-yl)phenyl)ethynyl)pyrrolidin-2-one]	1910	110
CN1CC[C@](O)(C#Cc2cccc(-c3ccc4ncnc(N5CCC5)c4n3)c2)C1=O [Example 231, (S)-3-((3-(4-(Azetidin-1-yl)pyrido[3,2-d]pyrimidin-6-yl)phenyl)ethynyl)-3-hydroxy-1-methylpyrrolidin-2-one]	> 5000	340
CN1CC[C@@](O)(C#Cc2cccc(-c3ccc4ncnc(N5CC(F)(F)C5)c4n3)c2)C1=O [Example 232, (R)-3-((3-(4-(3,3-Difluoroazetidin-1-yl)pyrido[3,2-d]pyrimidin-6-yl)phenyl)ethynyl)-3-hydroxy-1-methylpyrrolidin-2-one]	210	5.7
CN1CC[C@@](O)(C#Cc2cccc(-c3ccc4ccnc(N5CCC5)c4n3)c2)C1=O [Example 233, (R)-3-((3-(8-(Azetidin-1-yl)-1,7-naphthyridin-2-yl)phenyl)ethynyl)-3-hydroxy-1-methylpyrrolidin-2-one]	> 5000	520
